From article PMC5739597, “Discovery and evaluation of triple inhibitors of VEGFR-2, TIE-2 and EphB4 as anti-angiogenic and anti-cancer agents” (Oncotarget, 2017)
pIC50: −log10 of the molar value. Where “and” joins values, the source holds several entries; their conditions need not be identical. Equal entries are not always repeated.

Tests used:
TIE-2 = TIE-2 (Homo sapiens, UniProt Q02763); assay: ADP-Glo in vitro RTK inhibition assay, TIE-2; format: biochemical; details: ATP 50 μM
Experimental: In order to validate the direct effect of title compounds on VEGFR-2, Tie-2, and EphB4 kinases, we performed in vitro assay using the ADP-Glo Kinase Assay Kit (Promega, Wisconsin, USA).
The kinase assay was performed in a reaction mixture of final volume of 10 μL. […] The plate was incubated at 30°C for 1 h. After the plate was cooled at room temperature for 5 min, 5 μL of ADP-Glo reagent was added into each well to stop the reaction and consume the remaining […] within 40 min. At the end, 10 μL of kinase detection reagent was added into the well and incubated for 30 min to produce a luminescence signal. […] The assay plate was incubated at 30°C for 4 h. After the plate was cooled at room temperature for 5 min, 5 μL of ADP-Glo reagent was added into each well to stop the reaction and consume the remaining […] within 1 h. At the end, 10 μL of kinase detection reagent was added into each well and incubated for 30 min to produce a luminescence signal. The luminescence was read by VICTOR-X multi-label plate reader.

VEGFR-1 = VEGFR-1 (Homo sapiens, UniProt P17948); assay: Kinase-Glo Plus RTK selectivity assay, VEGFR-1; format: biochemical; details: 10 μM ATP
Experimental: (§1) A 50 μL reaction mixture contains 40 mM Tris, pH 7.4, 10 mM MgCl2, 0.1 mg/ml BSA, 1 mM DTT, 10 μM ATP, kinase and substrate (0.2 mg/mL Poly(Glu, Tyr)/10 μM ATP). The test compounds were diluted in 10% DMSO and 5 μL of the dilution was added to a 50 μL reaction so that the final concentration of DMSO is 1% in all of reactions. The assay was performed using Kinase-Glo Plus luminescence kinase assay kit. It measures kinase activity by quantitating the amount of ATP remaining in solution following a kinase reaction. The luminescent signal from the assay is correlated with the amount of ATP present and is inversely correlated with the amount of kinase activity. The IC50 values were calculated using nonlinear regression with normalized dose−response fit using Prism GraphPad software.

FGFR-4 = FGFR-4 (Homo sapiens, UniProt P22455); assay: Kinase-Glo Plus RTK selectivity assay, FGFR-4; format: biochemical; details: 10 μM ATP
Experimental: as §1

EGFR = EGFR (Homo sapiens, UniProt P00533); assay: Kinase-Glo Plus RTK selectivity assay, EGFR; format: biochemical; details: 10 μM ATP
Experimental: as §1

c-Kit = c-Kit (Homo sapiens, UniProt P10721); assay: Kinase-Glo Plus RTK selectivity assay, c-Kit; format: biochemical; details: 10 μM ATP
Experimental: as §1

[1] = system: human hepatic cancer cell lines (7721); assay: Anti-proliferative MTT assay, 7721; format: cell-based; details: 48 h
Experimental: (§2) These RTKs play critical roles in the proliferation of various cancers. Therefore, RTKs inhibition generally translate well into anti-proliferation activity.
(§3) Exponentially growing cells were harvested and plated in 96-well plates at a concentration of 1×10^4 cells/well per well, and then were incubated at 37°C for 24 h. […] Subsequently, 22 μL fresh MTT (5 mg/mL) was added to each well and incubated at 37°C for 4 h. […] DMSO was added to each well after supernatant was discarded. Absorbance values were determined by a microplate reader (Bio-Rad Instruments) at 490 nm. The IC50 values were calculated according to inhibition ratios.

[2] = system: human breast cancer cell lines (MCF-7); assay: Anti-proliferative MTT assay, MCF-7; format: cell-based; details: MCF7, 48 h
Experimental: as §2, §3

[3] = system: human epidermoid carcinoma cell line (A431); assay: Anti-proliferative MTT assay, A431; format: cell-based; details: A-431, 48 h
Experimental: as §2, §3

[4] = system: human lung cancer cell (A549); assay: Anti-proliferative MTT assay, A549; format: cell-based; details: 48 h
Experimental: as §2, §3

[5] = system: human colon carcinoma cell line (LOVO); assay: Anti-proliferative MTT assay, LOVO; format: cell-based; details: 48 h
Experimental: as §2, §3

[6] = system: human cervical cancer cell line (HeLa); assay: Anti-proliferative MTT assay, HeLa; format: cell-based; details: 48 h
Experimental: as §2, §3

[7] = system: human embryonic kidney 293 (HEK293); assay: Cytotoxicity on normal cells, HEK293; format: cell-based; details: MTT, 48 h, read-out: Anti-proliferative activity IC50, HEK293 (normal cells)
Experimental: In order to determine the anti-angiogenic effect of these multi-target inhibitors, we evaluated their effect on HECs (EA.hy926) viability using cell counting kit-8 (CCK-8) method.
as §2, §3

VEGFR-2 = VEGFR-2 (Homo sapiens, UniProt P35968); assay: VEGFR-2/cell membrane chromatography (CMC) affinity evaluation; format: binding
Experimental: In previous studies, artificial cultures highly expressing VEGFR-2 on HEK293 cell lines were constructed. […] Chromatographic conditions: 10 mm×2.0 mm; flow rate0.6 mL/min; column temperature 37°C; mobile phase 5 mM PBS, pH 7.4; detection wavelength 270 nm.
The VEGFR-2 cell membrane stationary phase was prepared as previous reported. Aqueous ammonium acetate buffer solution (pH 7.4, 5 mM) was pumped at a flow rate of 0.2 mL/min as the mobile phase after VEGFR-2/CMC column was loaded onto the chromatography system at the temperature of 37°C. […] The mobile phase was 5.0 mM phosphate burred saline with a 0.6 mL/min flow rate at a column temperature of 37°C. The detected wavelength was 270 nm. The test compound was injected into the VEGFR-2/CMC column and their retention characteristics were identified to evaluate their affinity with VEGFR-2.

MCF-7 xenograft = assay: In vivo MCF-7 xenograft mice model; details: ig; for Final body weight / Tumor growth inhibition / Final tumor weight: 21 days; for Final tumor weight: control 0.848±0.5; for Initial body weight: before treatment
Experimental: Six-week old female BALB/c mice were purchased from Shanghai Laboratory Animal center of the Chinese Academy of Sciences and housed under aseptic and ventilated condition. The mice were inoculated by subcutaneous injection with MCF-7 cancer cells suspended in 5% saline. Tumor volume and weight were measured on alternate days. Body weights were monitored as an indicator of toxicity. […] Treatment started from the next day and continued for 21 days. All mice were killed at the end of the experiment, and subcutaneous tumors were removed and weighted.

VEGFR-2, sequence (P35968 20-1356): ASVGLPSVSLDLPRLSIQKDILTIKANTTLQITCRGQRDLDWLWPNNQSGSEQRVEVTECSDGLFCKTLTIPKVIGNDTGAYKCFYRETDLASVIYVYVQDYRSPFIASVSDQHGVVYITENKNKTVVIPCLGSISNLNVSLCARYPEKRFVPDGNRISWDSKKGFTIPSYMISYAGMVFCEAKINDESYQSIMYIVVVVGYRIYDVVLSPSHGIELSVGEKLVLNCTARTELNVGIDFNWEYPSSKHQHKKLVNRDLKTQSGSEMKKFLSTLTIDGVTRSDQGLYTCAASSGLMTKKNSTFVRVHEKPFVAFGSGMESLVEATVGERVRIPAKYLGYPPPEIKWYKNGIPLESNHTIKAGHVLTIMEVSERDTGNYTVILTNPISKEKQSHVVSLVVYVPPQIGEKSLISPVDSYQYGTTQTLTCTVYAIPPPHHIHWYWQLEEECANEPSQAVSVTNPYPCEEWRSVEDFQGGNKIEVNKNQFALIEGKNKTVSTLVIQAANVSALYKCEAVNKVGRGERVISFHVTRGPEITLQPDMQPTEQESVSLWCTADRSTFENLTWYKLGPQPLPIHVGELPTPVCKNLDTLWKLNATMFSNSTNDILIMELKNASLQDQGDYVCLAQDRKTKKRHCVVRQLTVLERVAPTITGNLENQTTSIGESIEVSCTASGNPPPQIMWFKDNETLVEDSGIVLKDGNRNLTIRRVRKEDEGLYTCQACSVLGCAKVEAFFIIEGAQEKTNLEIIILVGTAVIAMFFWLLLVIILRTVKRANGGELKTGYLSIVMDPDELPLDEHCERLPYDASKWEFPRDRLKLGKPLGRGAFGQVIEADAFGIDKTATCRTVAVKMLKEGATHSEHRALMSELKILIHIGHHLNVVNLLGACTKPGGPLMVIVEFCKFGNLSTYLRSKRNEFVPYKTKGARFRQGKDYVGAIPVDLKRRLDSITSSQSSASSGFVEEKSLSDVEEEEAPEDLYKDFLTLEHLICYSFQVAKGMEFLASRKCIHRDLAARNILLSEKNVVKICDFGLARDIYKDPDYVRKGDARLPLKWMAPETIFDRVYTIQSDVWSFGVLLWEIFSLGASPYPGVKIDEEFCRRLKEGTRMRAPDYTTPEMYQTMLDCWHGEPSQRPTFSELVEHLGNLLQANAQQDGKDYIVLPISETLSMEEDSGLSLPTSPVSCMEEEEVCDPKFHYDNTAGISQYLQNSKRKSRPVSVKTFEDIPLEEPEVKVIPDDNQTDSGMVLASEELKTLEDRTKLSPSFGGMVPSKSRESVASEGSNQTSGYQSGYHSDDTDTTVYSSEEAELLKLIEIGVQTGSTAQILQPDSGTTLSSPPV
EGFR, sequence (P00533 25-1210, species assumed): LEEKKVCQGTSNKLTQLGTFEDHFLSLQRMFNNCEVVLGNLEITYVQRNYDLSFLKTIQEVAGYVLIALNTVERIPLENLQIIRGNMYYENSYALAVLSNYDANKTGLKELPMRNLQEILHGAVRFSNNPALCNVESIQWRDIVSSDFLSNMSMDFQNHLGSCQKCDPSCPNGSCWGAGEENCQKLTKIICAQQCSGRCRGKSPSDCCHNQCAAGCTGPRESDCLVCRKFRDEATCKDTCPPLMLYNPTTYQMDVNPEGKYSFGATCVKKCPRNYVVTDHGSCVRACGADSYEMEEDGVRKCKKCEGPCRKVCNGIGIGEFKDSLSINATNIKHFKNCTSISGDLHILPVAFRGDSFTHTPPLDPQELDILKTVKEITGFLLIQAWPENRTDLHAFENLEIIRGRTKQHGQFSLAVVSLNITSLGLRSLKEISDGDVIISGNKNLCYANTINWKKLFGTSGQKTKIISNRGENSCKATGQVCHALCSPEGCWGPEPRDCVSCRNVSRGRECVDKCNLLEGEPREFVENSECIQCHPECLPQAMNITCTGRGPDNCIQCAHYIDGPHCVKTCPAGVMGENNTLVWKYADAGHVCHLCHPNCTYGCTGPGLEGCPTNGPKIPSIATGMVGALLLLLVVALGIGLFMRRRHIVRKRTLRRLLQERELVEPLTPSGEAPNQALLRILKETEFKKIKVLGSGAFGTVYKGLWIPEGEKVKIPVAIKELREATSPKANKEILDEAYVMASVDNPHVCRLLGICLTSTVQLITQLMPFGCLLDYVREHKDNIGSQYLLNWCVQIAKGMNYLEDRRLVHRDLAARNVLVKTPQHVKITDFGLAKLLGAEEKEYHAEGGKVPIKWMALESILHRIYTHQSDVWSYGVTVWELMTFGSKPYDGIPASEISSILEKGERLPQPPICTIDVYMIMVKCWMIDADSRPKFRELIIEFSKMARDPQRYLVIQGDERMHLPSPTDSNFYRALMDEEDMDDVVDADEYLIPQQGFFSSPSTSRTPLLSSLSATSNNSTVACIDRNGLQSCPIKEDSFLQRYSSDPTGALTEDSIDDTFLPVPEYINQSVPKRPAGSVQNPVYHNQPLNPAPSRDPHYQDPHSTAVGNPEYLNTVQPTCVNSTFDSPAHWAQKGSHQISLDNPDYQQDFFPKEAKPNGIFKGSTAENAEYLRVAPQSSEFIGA
VEGFR-1, sequence (P17948 27-1338, species assumed): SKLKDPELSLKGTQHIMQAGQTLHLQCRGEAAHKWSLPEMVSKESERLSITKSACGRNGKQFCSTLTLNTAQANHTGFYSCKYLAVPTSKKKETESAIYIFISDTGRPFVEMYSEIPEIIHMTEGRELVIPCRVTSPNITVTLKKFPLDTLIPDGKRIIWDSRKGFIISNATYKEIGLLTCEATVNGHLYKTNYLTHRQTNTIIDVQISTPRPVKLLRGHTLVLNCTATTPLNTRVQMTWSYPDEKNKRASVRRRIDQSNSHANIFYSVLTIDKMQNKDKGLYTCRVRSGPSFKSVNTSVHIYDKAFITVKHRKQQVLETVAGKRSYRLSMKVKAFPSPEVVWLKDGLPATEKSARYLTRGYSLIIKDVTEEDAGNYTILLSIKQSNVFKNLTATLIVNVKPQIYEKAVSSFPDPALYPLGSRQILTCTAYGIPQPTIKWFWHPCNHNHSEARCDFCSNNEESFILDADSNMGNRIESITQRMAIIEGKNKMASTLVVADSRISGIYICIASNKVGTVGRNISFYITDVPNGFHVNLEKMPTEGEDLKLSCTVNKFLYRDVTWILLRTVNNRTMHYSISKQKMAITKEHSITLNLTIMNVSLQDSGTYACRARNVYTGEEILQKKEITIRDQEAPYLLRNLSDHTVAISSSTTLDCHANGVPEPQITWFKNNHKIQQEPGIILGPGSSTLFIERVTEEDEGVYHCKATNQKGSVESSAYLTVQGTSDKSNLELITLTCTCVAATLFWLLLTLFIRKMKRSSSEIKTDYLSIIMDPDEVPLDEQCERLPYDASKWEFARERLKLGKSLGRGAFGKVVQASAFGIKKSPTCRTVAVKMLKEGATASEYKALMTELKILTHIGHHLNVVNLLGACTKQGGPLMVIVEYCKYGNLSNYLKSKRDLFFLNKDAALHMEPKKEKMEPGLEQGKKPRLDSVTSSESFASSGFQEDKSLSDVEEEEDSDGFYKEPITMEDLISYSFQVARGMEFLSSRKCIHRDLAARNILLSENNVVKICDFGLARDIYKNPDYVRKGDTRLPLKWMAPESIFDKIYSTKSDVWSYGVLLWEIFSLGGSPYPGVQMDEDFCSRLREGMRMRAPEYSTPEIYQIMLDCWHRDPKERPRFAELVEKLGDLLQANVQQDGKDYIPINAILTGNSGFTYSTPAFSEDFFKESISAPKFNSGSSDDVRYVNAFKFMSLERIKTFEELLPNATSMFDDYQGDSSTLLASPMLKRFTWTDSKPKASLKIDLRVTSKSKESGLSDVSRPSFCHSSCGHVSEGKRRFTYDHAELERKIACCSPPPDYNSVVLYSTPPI
FGFR-4, sequence (P22455 22-802, species assumed): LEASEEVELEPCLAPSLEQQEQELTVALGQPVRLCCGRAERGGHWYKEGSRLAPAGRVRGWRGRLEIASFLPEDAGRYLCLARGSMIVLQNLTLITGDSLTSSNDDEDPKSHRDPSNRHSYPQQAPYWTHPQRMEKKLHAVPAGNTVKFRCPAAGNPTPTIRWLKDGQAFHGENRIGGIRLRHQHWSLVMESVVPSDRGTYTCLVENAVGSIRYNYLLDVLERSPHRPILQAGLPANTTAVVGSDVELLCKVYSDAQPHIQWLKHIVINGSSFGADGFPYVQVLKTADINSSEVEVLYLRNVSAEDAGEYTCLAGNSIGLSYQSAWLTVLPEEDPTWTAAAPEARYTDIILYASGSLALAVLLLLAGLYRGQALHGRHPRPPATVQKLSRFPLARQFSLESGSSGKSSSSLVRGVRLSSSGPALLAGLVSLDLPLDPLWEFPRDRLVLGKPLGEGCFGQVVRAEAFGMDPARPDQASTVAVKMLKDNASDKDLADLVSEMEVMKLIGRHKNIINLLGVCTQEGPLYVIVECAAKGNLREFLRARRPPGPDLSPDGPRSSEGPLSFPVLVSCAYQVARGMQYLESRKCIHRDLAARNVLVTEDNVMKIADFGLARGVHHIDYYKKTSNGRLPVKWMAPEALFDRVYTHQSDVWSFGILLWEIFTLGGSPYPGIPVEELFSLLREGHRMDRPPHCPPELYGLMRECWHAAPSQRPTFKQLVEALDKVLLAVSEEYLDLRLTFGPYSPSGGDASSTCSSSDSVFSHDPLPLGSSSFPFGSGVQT

Structure (SMILES): O=C(Nc1ccc(-c2ccc3c(=O)[nH]cnc3c2)cc1)Nc1ccc(F)c(F)c1 [QDAU5, 1-(3,4-difluorophenyl)-3-(4-(4-oxo-3,4-dihydroquinazolin-7-yl)phenyl)urea]
- pIC50 (TIE-2): 8.05
- pIC50 (VEGFR-1): 6.72
- pIC50 (FGFR-4): < 6.30
- pIC50 (EGFR): 7.01
- pIC50 (c-Kit): 6.85
- pIC50 [1]: 4.23
- pIC50 [2]: 5.67
- pIC50 [3]: 4.77
- pIC50 [4]: 5.08
- pIC50 [5]: 5.30
- pIC50 [6]: 5.25
- pIC50 [7]: < 4.00
- Direct competitive assay on VEGFR-2/CMC (change in K' of multi-target RTK inhibitors) (VEGFR-2; QDAU5 at increasing concentrations in the mobile phase): interacted with the same site of VEGFR-2
- Retention time on VEGFR-2/cell membrane stationary phase column (VEGFR-2; flow rate 0.6 mL/min, 37°C, 5 mM PBS pH 7.4, 270 nm): 38 min and 38.0 min
- Final body weight (MCF-7 xenograft; 20 mg/kg daily): 17.4 ± 1.0 g
- Tumor growth inhibition (MCF-7 xenograft; 20 mg/kg daily): 7.2%
- Final tumor weight (MCF-7 xenograft; 20 mg/kg daily): 0.787 ± 0.7 g
- Initial body weight (MCF-7 xenograft; 20 mg/kg): 18.7 ± 0.8 g
- Final body weight (MCF-7 xenograft; 40 mg/kg daily): 18.9 ± 1.2 g
- Tumor growth inhibition (MCF-7 xenograft; 40 mg/kg daily, 40 mg/kg): 24%
- Final tumor weight (MCF-7 xenograft; 40 mg/kg daily): 0.642 ± 0.8 g
- Initial body weight (MCF-7 xenograft; 40 mg/kg): 18.4 ± 0.6 g
- Final body weight (MCF-7 xenograft; 80 mg/kg daily): 16.1 ± 1.0 g
- Tumor growth inhibition (MCF-7 xenograft; 80 mg/kg daily, 80 mg/kg): 47%
- Final tumor weight (MCF-7 xenograft; 80 mg/kg daily): 0.449 ± 0.9 g
- Initial body weight (MCF-7 xenograft; 80 mg/kg): 18.3 ± 0.7 g
